From US8906826B2, “Herbicidal compositions comprising 4-amino-3-chloro-5-fluoro-6-(4-chloro-2-fluoro-3-methoxyphenyl) pyridine-2-carboxylic acid or a derivative thereof and imidazolinones” (Dow AgroSciences, LLC, priority 2012, dated 2014)

How the values were obtained:
IPOHE = assay: Postemergence foliar-applied, direct seeded rice weeds (Example I); assay type: in vivo, Ipomoea hederacea Jacq.
Text: (§1) Seeds or nutlets of the desired test plant species were planted in a soil matrix prepared by mixing a loam or sandy loam soil (e.g., 28.6 percent silt, 18.8 percent clay, and 52.6 percent sand, with a pH of about 5.8 and an organic matter content of about 1.8 percent) and calcareous grit in an 80 to 20 ratio. The soil matrix was contained in plastic pots with a volume of 1 quart and a surface area of 83.6 cm^2. When required to ensure good germination and healthy plants, a fungicide treatment and/or other chemical or physical treatment was applied. The plants were grown for 8-22 days in a greenhouse with an approximate 14 h photoperiod which was maintained at about 29° C. during the day and 26° C. during the night. Nutrients (Peters Excel® 15-5-15 5-Ca 2-Mg and iron chelate) were applied in the irrigation solution as needed and water was added on a regular basis. Supplemental lighting was provided with overhead metal halide 1000-Watt lamps as necessary. The plants were employed for testing when they reached the first through fourth true leaf stage.
(§2) Treatments consisted of the acid or esters of 4-amino-3-chloro-5-fluoro-6-(4-chloro-2-fluoro-3-methoxy-phenyl)pyridine-2-carboxylic acid (Compound A), each formulated as an SC (suspension concentrate), and various herbicidal components alone and in combination. Forms of compound A were applied on an acid equivalent basis.
(§3) Other herbicidal components were applied on an acid equivalent basis and include acetolactate synthase (ALS)-inhibiting herbicides (imidazolinone chemical class) imazethapyr ammonium salt formulated as Newpath®, imazamox ammonium salt formulated as Beyond®, imazapic ammonium salt formulated as Plateau®, imazapyr isopropylamine salt formulated as Arsenal®, imazamethabenz-methyl (technical material) and imazaquin isopropylamine salt formulated as Scepter®/Imagine®.
(§4) Treatment requirements were calculated based upon the rates being tested, the concentration of active ingredient or acid equivalent in the formulation, and a 12 mL application volume at a rate of 187 L/ha.
(§5) For treatments comprised of formulated compounds, measured amounts of compounds were placed individually in 25 mL glass vials and diluted in a volume of 1.25% (v/v) Agri-Dex® crop oil concentrated to obtain 12× stock solutions. […] Application solutions were prepared by adding an appropriate amount of each stock solution (e.g., 1 mL) and diluted to the appropriate final concentrations with the addition of 10 mL of an aqueous mixture of 1.25% (v/v) crop oil concentrate so that the final spray solutions contained 1.25+/−0.05% (v/v) crop oil concentrate.
(§6) For treatments comprised of technical compounds, weighed amounts can be placed individually in 25 mL glass vials and dissolved in a volume of 97:3 v/v acetone/DMSO to obtain 12× stock solutions. […] Application solutions can be prepared by adding an appropriate amount of each stock solution (e.g., 1 mL) and diluted to the appropriate final concentrations with the addition of 10 mL of an aqueous mixture of 1.5% (v/v) crop oil concentrate so that the final spray solutions contain 1.25% (v/v) crop oil concentrate. When technical materials are used, the concentrated stock solutions can be added to the spray solutions so that the final acetone and DMSO concentrations of the application solutions are 16.2% and 0.5%, respectively.
(§7) For treatments comprised of formulated and technical compounds, weighed amounts of the technical materials were placed individually in 25 mL glass vials and dissolved in a volume of 97:3 v/v acetone/DMSO to obtain 12× stock solutions, and measured amounts of the formulated compounds were placed individually in 25 mL glass vials and diluted in a volume of 1.5% (v/v) crop oil concentrate or water to obtain 12× stock solutions. […]

DIGSA = assay: as above; assay type: in vivo, Digitaria sanguinalis (L.) Scop.; conditions: Compound A n-Butyl Ester 16 gae/ha
Text: as §1, §2, §3, §4
For treatments comprised of formulated compounds, measured amounts of compounds were placed individually in 25 mL glass vials and diluted in a volume of 1.25% (v/v) Agri-Dex® crop oil concentrated to obtain 12× stock solutions. […]
as §7

CYPRO = assay: In-water applied, transplanted paddy rice weeds (Example II); assay type: in vivo, Cyperus rotundus L.; conditions: Imazapyr IPA 70 gae/ha
Procedure: Weed seeds or nutlets of the desired test plant species were planted in puddled soil (mud) prepared by mixing a shredded, non-sterilized mineral soil (50.5 percent silt, 25.5 percent clay, and 24 percent sand, with a pH of about 7.6 and an organic matter content of about 2.9 percent) and water at a 1:1 volumetric ratio. The prepared mud was dispensed in 365 mL aliquots into 16-ounce (oz.) non-perforated plastic pots with a surface area of 86.59 square centimeters (cm^2) leaving a headspace of 3 centimeters (cm) in each pot. Mud was allowed to dry overnight prior to planting or transplanting. Rice seeds were planted in Sun Gro MetroMix® 306 planting mixture, which typically has a pH of about 6.0 to about 6.8 and an organic matter content of about 30 percent, in plastic plug trays. Seedlings at the second or third leaf stage of growth were transplanted into 860 mL of mud contained in 32-oz. non-perforated plastic pots with a surface area of 86.59 cm^2 4 days prior to herbicide application. The paddy was created by filling the headspace of the pots with 2.5 to 3 cm of water. When required to ensure good germination and healthy plants, a fungicide treatment and/or other chemical or physical treatment was applied. The plants were grown for 4-22 days in a greenhouse with an approximate 14 h photoperiod which was maintained at about 29° C. during the day and about 26° C. during the night. Nutrients were added as Osmocote® (19:6:12, N:P:K+minor nutrients) at 2 g per 16-oz. pot and 4 g per 32-oz. pot. […]
(§8) Treatment requirements for each compound or herbicidal component were calculated based upon the rates being tested, the concentration of active ingredient or acid equivalent in the formulation, an application volume of 2 mL per component per pot, and an application area of 86.59 cm^2 per pot.
For formulated compounds, a measured amount was placed in an individual 100 or 200 mL glass vial and was dissolved in a volume of 1.25% (v/v) Agri-Dex® crop oil concentrate to obtain application solutions. […]

ECHOR = assay: as above; assay type: in vivo, Echinochloa oryzoides (Ard.) Fritsch
Procedure: Weed seeds or nutlets of the desired test plant species were planted in puddled soil (mud) prepared by mixing a shredded, non-sterilized mineral soil (50.5 percent silt, 25.5 percent clay, and 24 percent sand, with a pH of about 7.6 and an organic matter content of about 2.9 percent) and water at a 1:1 volumetric ratio. The prepared mud was dispensed in 365 mL aliquots into 16-ounce (oz.) non-perforated plastic pots with a surface area of 86.59 square centimeters (cm^2) leaving a headspace of 3 centimeters (cm) in each pot. Mud was allowed to dry overnight prior to planting or transplanting. Rice seeds were planted in Sun Gro MetroMix® 306 planting mixture, which typically has a pH of about 6.0 to about 6.8 and an organic matter content of about 30 percent, in plastic plug trays. Seedlings at the second or third leaf stage of growth were transplanted into 860 mL of mud contained in 32-oz. non-perforated plastic pots with a surface area of 86.59 cm^2 4 days prior to herbicide application. The paddy was created by filling the headspace of the pots with 2.5 to 3 cm of water. When required to ensure good germination and healthy plants, a fungicide treatment and/or other chemical or physical treatment was applied. The plants were grown for 4-22 days in a greenhouse with an approximate 14 h photoperiod which was maintained at about 29° C. during the day and about 26° C. during the night. Nutrients were added as Osmocote® (19:6:12, N:P:K+minor nutrients) at 2 g per 16-oz. pot and 4 g per 32-oz. pot. Water was added on a regular basis to maintain the paddy flood, and supplemental lighting was provided with overhead metal halide 1000-Watt lamps as necessary. The plants were employed for testing when they reached the first through fourth true leaf stage.
Treatments consisted of the acid or esters of 4-amino-3-chloro-5-fluoro-6-(4-chloro-2-fluoro-3-methoxy-phenyl)pyridine-2-carboxylic acid (compound A) each formulated as an SC and various herbicidal components alone and in combination. Forms of compound A were applied on an acid equivalent basis.
as §3, with “included the” for “include”, “(ALS)-inhibiting imidazolinone” for “(ALS)-inhibiting”, “herbicides” for “herbicides (imidazolinone chemical class)”, “material),” for “material)”, “Scepter®.” for “Scepter®/Imagine®.”
as §8
For formulated compounds, a measured amount was placed in an individual 100 or 200 mL glass vial and was dissolved in a volume of 1.25% (v/v) Agri-Dex® crop oil concentrate to obtain application solutions.
For technical grade compounds, a weighed amount was placed in an individual 100 to 200 mL glass vial and was dissolved in a volume of acetone to obtain concentrated stock solutions. […] The concentrated stock solutions obtained were diluted with an equivalent volume of an aqueous mixture containing 2.5% (v/v) crop oil concentrate so that the final application solutions contained 1.25% (v/v) crop oil concentrate.
Applications were made by injecting with a pipetter appropriate amounts of the application solutions, individually and sequentially, into the aqueous layer of the paddy. Control plants were treated in the same manner with the solvent blank. Applications were made so that all treated plant material received the same concentrations of acetone and crop oil concentrate.
The treated plants and control plants were placed in a greenhouse as described above and water was added as needed to maintain a paddy flood. […]

CHEAL = assay: Postemergence herbicidal activity in cereal crops, greenhouse (Example V); assay type: in vivo, Chenopodium album L.; conditions: Imazamethabenz-methyl 200 gai/ha
Procedure: (§9) Seeds of the desired test plant species were planted in Sun Gro MetroMix® 306 planting mixture, which typically has a pH of 6.0 to 6.8 and an organic matter content of about 30 percent, in plastic pots with a surface area of 103.2 square centimeters (cm^2). When required to ensure good germination and healthy plants, a fungicide treatment and/or other chemical or physical treatment was applied. The plants were grown for 7-36 days in a greenhouse with an approximate 14 hour photoperiod which was maintained at about 18° C. during the day and about 17° C. during the night. Nutrients and water were added on a regular basis and supplemental lighting was provided with overhead metal halide 1000-Watt lamps as necessary. The plants were employed for testing when they reached the second or third true leaf stage.
(§10) Treatments consisted of the benzyl ester of 4-amino-3-chloro-5-fluoro-6-(4-chloro-2-fluoro-3-methoxy-phenyl)pyridine-2-carboxylic acid (Compound A), formulated as an SC, a second cereal herbicide alone and then both in combination.
(§11) Other herbicidal components were applied on an acid equivalent basis and include acetolactate synthase (ALS)-inhibiting herbicides (imidazolinone chemical class) imazamethabenz-methyl formulated as Assert®. Spray solutions of the second cereal herbicide and experimental compound mixtures were prepared by adding the stock solutions to the appropriate amount of dilution solution to form 12 mL spray solution with active ingredients in two- and three-way combinations. […]
(§12) The treated plants and control plants were placed in a greenhouse as described above and watered by sub-irrigation to prevent wash-off of the test compounds. After 20-22 days, the condition of the test plants as compared with that of the control plants was determined visually and scored on a scale of 0 to 100 percent where 0 corresponds to no injury and 100 corresponds to complete kill. […]

VERPE = assay: as above; assay type: in vivo, Veronica persica Poir.; conditions: Imazamethabenz-methyl 200 gai/ha
Procedure: as §9, §10, §11, §12

CYPIR = assay: Postemergence foliar-applied, direct seeded rice weeds (Example I); assay type: in vivo, Cyperus iria L.
Text: as §1, §2, §3, §4, §5, §6, §7

SASKR = assay: Postemergence herbicidal activity in cereal crops, greenhouse (Example V); assay type: in vivo, Salsola iberica L.; conditions: Imazamethabenz-methyl 200 gai/ha
Procedure: as §9, §10, §11, §12

CIRAR = assay: as above; assay type: in vivo, Cirsium arvense (L.) Scop.; conditions: Imazamethabenz-methyl 200 gai/ha
Procedure: as §9, §10, §11, §12

PAPRH = assay: as above; assay type: in vivo, Papaver rhoeas L.; conditions: Imazamethabenz-methyl 200 gai/ha
Procedure: as §9, §10, §11, §12

SINAR = assay: as above; assay type: in vivo, Sinapis arvensis L.; conditions: Imazamethabenz-methyl 200 gai/ha
Procedure: as §9, §10, §11, §12

Molecule: CC(C)C1(C)N=C(c2nc3ccccc3cc2C(=O)O)NC1=O (racemic) [Imazaquin IPA, (±)-2-[4,5-dihydro-4-methyl-4-(1-methylethyl)-5-oxo-1H-imidazol-2-yl]-3-quinolinecarboxylic acid with 2-propanamine, reference compound]
- Visual Weed Control (%) - 21 DAA IPOHE Obs (IPOHE; Imazaquin IPA 9 gae/ha): 0%
- Visual Weed Control (%) - 21 DAA IPOHE Obs (IPOHE; Imazaquin IPA 18 gae/ha): 10%
- Visual Weed Control (%) - 21 DAA IPOHE Obs (IPOHE; Imazaquin IPA 36 gae/ha): 0%

Molecule: CCCCOC(=O)c1nc(-c2ccc(Cl)c(OC)c2F)c(F)c(N)c1Cl [Compound A n-Butyl Ester]
- Visual Weed Control (%) - 20 DAA DIGSA Obs (DIGSA): 15%

Molecule: CC(C)C1(C)N=C(c2ncccc2C(=O)O)NC1=O (stereo not drawn) [Imazapyr IPA, 2-[4,5-dihydro-4-methyl-4-(1-methylethyl)-5-oxo-1H-imidazol-2-yl]-3-pyridinecarboxylic acid compound with 2-propanamine, reference compound]
- Visual Weed Control (%) - 21 DAA IPOHE Obs (IPOHE; Imazapyr IPA 4.38 gae/ha): 50%
- Visual Weed Control (%) - 21 DAA IPOHE Obs (IPOHE; Imazapyr IPA 8.75 gae/ha): 40%
- Visual Weed Control (%) - 22 DAA CYPRO Obs (CYPRO): 70%
- Visual Weed Control (%) - 22 DAA ECHOR Obs (ECHOR; Imazapyr IPA 70 gae/ha): 50%
- Visual Weed Control (%) - 22 DAA ECHOR Obs (ECHOR; Imazapyr IPA 140 gae/ha): 85%

Molecule: methyl 2-[4,5-dihydro-4-methyl-4-(1-methylethyl)-5-oxo-1H-imidazol-2-yl]-4-methylbenzoic acid or methyl 2-[4,5-dihydro-4-methyl-4-(1-methylethyl)-5-oxo-1H-imidazol-2-yl]-5-methylbenzoic acid or mixtures thereof [Imazamethabenz-methyl, reference compound]
- Visual Weed Control (%) - 21 DAA CHEAL Obs (CHEAL): 0%
- Visual Weed Control (%) - 21 DAA VERPE Obs (VERPE): 0%
- Visual Weed Control (%) - 22 DAA CYPIR Obs (CYPIR; Imazamethabenz-methyl 43.75 gai/ha): 0%
- Visual Weed Control (%) - 22 DAA CYPIR Obs (CYPIR; Imazamethabenz-methyl 87.5 gai/ha): 20%
- Visual Weed Control (%) - 22 DAA CYPIR Obs (CYPIR; Imazamethabenz-methyl 175 gai/ha): 25%
- Visual Weed Control (%) - 21 DAA SASKR Obs (SASKR): 70%
- Visual Weed Control (%) - 21 DAA CIRAR Obs (CIRAR): 0%
- Visual Weed Control (%) - 21 DAA PAPRH Obs (PAPRH): 0%
- Visual Weed Control (%) - 21 DAA SINAR Obs (SINAR): 70%
